The target in the test is EGFR (UniProt P00533).
Sequence of EGFR (P00533 whole entry, looked up): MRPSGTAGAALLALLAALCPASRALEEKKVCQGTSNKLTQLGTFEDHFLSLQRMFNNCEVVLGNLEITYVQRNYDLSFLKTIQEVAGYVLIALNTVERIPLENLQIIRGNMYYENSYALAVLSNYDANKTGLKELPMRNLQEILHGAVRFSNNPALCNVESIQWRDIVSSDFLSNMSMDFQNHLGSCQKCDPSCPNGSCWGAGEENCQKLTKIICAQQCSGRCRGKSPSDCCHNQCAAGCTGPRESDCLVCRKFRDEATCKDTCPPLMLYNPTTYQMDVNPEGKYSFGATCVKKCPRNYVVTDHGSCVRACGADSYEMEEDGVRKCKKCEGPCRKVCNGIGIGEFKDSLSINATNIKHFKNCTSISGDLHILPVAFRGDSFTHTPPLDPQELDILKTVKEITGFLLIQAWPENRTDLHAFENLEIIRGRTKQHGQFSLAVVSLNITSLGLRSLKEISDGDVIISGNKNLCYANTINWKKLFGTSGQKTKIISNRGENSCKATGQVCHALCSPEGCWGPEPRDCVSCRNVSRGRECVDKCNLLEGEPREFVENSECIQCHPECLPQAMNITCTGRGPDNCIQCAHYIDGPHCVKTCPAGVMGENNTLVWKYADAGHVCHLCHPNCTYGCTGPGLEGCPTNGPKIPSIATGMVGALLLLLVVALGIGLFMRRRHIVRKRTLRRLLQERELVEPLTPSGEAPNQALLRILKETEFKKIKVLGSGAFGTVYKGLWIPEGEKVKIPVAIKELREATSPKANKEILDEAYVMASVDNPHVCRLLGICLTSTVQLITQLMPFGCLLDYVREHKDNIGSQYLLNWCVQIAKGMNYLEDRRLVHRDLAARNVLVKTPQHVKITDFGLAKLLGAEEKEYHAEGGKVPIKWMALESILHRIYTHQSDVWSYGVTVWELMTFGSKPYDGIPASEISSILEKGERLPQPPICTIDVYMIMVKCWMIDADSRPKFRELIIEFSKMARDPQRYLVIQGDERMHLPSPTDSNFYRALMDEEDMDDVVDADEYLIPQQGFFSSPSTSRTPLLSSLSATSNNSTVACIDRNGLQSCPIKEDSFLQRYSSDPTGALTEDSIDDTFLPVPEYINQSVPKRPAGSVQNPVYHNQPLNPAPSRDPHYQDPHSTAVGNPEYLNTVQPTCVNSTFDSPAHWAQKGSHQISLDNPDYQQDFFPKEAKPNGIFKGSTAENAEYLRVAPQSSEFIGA
For the compound `COc1cc2c(NS(=O)(=O)c3ccccc3Cl)ncnc2cc1OCCN1CCOCC1`, the IC50 is ≤ 1000 nM.

As to `COc1cc2c(NS(=O)(=O)c3c(C)cc(C)cc3C)ncnc2cc1OCCCN(C)C`, the IC50 was ≤ 1000 nM.

As for `CCN(CC)CCOc1cc2ncnc(NS(=O)(=O)c3cn(C)cn3)c2cc1OC`, the IC50 was ≤ 1000 nM.

As to `COc1ccc(S(=O)(=O)Nc2ncnc3cc(OCCN4CCCCC4)c(OC)cc23)cc1`, the IC50 was ≤ 1000 nM.

Regarding `COc1cc2c(NS(=O)(=O)c3cc(Cl)cc(Cl)c3)ncnc2cc1OCCN1CCN(C)CC1`, the IC50 was ≤ 1000 nM.

Take `COc1cc2c(NS(=O)(=O)c3cccc(Br)c3)ncnc2cc1OCCN1CCOCC1`: the IC50 was ≤ 1000 nM.

Turning to `COc1cc2c(NS(=O)(=O)c3ccccc3)ncnc2cc1OCCCN(C)C`, the concentration for half-maximal inhibition (IC50) is ≤ 1000 nM.

Take `COc1cc2c(NS(=O)(=O)c3cccc(Cl)c3)ncnc2cc1OCCN1CCN(C)CC1`: the half-maximal inhibitory concentration (IC50) is ≤ 1000 nM.

For the compound `COc1cc2c(NS(=O)(=O)c3ccc(Sc4cccs4)s3)ncnc2cc1OCCN1CCCCC1`, the IC50 was ≤ 1000 nM.

On to `CCN(CC)CCOc1cc2ncnc(NS(=O)(=O)c3ccccc3)c2cc1OC`, for which the concentration for half-maximal inhibition (IC50) is ≤ 1000 nM.

`COc1cc2c(NS(=O)(=O)c3ccccc3Cl)ncnc2cc1OC1CCN(C)CC1`: the concentration for half-maximal inhibition (IC50) is ≤ 1000 nM.

Take `COc1cc2c(NS(=O)(=O)c3ccc(F)cc3)ncnc2cc1OC1CCN(C)CC1`: the half-inhibitory concentration (IC50) was ≤ 1000 nM.

As for `COc1cc2c(NS(=O)(=O)c3ccc(C(F)(F)F)cc3)ncnc2cc1OCCN1CCOCC1`, the IC50 was ≤ 1000 nM.

For the compound `COc1cc2c(NS(=O)(=O)c3ccc4ccccc4c3)ncnc2cc1OC1CCN(C)CC1`, the IC50 was ≤ 1000 nM.

As for `COc1cc2c(NS(=O)(=O)c3ccc4ccccc4c3)ncnc2cc1OCCN1CCN(C)CC1`, the IC50 is ≤ 1000 nM.

Regarding `COc1ccc(OC)c(S(=O)(=O)Nc2ncnc3cc(OC4CCN(C)CC4)c(OC)cc23)c1`, the 50% inhibitory concentration (IC50) is ≤ 1000 nM.

As to `COc1cc2c(NS(C)(=O)=O)ncnc2cc1OC1CCN(C)CC1`, the IC50 is ≤ 1000 nM.

On to `COc1cc2c(NS(=O)(=O)c3ccc(Cl)cc3)ncnc2cc1OCCN1CCCCC1`, for which the half-inhibitory concentration (IC50) is ≤ 1000 nM.

Turning to `COc1cc2c(NS(=O)(=O)c3ccc(Cl)cc3)ncnc2cc1OCCCN(C)C`, the IC50 is ≤ 1000 nM.

As for `COc1ccc(S(=O)(=O)Nc2ncnc3cc(OCCN4CCN(C)CC4)c(OC)cc23)cc1OC`, the IC50 is ≤ 1000 nM.

On to `CCN(CC)CCOc1cc2ncnc(NS(=O)(=O)c3cccc(Cl)c3)c2cc1OC`, for which the IC50 is ≤ 1000 nM.

Turning to `COc1cc2c(NS(=O)(=O)c3cc(Cl)cc(Cl)c3)ncnc2cc1OCCN1CCOCC1`, the concentration for half-maximal inhibition (IC50) was ≤ 1000 nM.

Turning to `COc1cc2c(NS(=O)(=O)c3ccc(C(C)(C)C)cc3)ncnc2cc1OCCCN(C)C`, the IC50 is ≤ 1000 nM.

With `COc1cc2c(NS(=O)(=O)c3ccc(Cl)s3)ncnc2cc1OCCN1CCN(C)CC1`, the IC50 was ≤ 1000 nM.

Consider `COc1cc2c(NS(=O)(=O)c3ccccc3C)ncnc2cc1OC1CCN(C)CC1`, for which the IC50 was ≤ 1000 nM.

Regarding `COc1cc2c(NS(=O)(=O)c3ccc4ccccc4c3)ncnc2cc1OCCN1CCCCC1`, the IC50 is ≤ 1000 nM.

For `COc1cc2c(NS(=O)(=O)c3ccc(OC(F)(F)F)cc3)ncnc2cc1OCCCN(C)C`, the half-maximal inhibitory concentration (IC50) was ≤ 1000 nM.

As for `COc1cc2c(NS(=O)(=O)c3ccc(Cl)cc3)ncnc2cc1OC1CCN(C)CC1`, the IC50 is ≤ 1000 nM.

`COc1ccc(S(=O)(=O)Nc2ncnc3cc(OC4CCN(C)CC4)c(OC)cc23)cc1`: the half-inhibitory concentration (IC50) was ≤ 1000 nM.

As for `COc1ccc(OC)c(S(=O)(=O)Nc2ncnc3cc(OCCN4CCN(C)CC4)c(OC)cc23)c1`, the IC50 was ≤ 1000 nM.

On to `CCN(CC)CCOc1cc2ncnc(NS(=O)(=O)c3ccc(OC)c(OC)c3)c2cc1OC`, for which the 50% inhibitory concentration (IC50) was ≤ 1000 nM.

Turning to `COc1cc2c(NS(=O)(=O)c3cccc(Cl)c3)ncnc2cc1OCCCN1CCOCC1`, the 50% inhibitory concentration (IC50) was ≤ 1000 nM.

On to `COc1cc2c(NS(=O)(=O)c3ccccc3C)ncnc2cc1OCCN1CCCCC1`, for which the IC50 was ≤ 1000 nM.

For `COc1ccc(S(=O)(=O)Nc2ncnc3cc(OCCN4CCCCC4)c(OC)cc23)cc1OC`, the IC50 is ≤ 1000 nM.

In the case of `COc1ccc(S(=O)(=O)Nc2ncnc3cc(OCCCN(C)C)c(OC)cc23)cc1`, the concentration for half-maximal inhibition (IC50) is ≤ 1000 nM.

For the compound `CCN(CC)CCOc1cc2ncnc(NS(=O)(=O)c3cc(Cl)c(Cl)s3)c2cc1OC`, the IC50 was ≤ 1000 nM.

For the compound `COc1cc2c(NS(=O)(=O)c3cccc(Br)c3)ncnc2cc1OCCN1CCCCC1`, the IC50 is ≤ 1000 nM.

As for `COc1cc2c(NS(=O)(=O)c3c(C)noc3C)ncnc2cc1OCCN1CCOCC1`, the concentration for half-maximal inhibition (IC50) was ≤ 1000 nM.

Turning to `COc1cc2c(NS(=O)(=O)c3ccc(Br)cc3)ncnc2cc1OCCN1CCN(C)CC1`, the IC50 was ≤ 1000 nM.

Consider `COc1cc2c(NS(=O)(=O)c3ccc(C)cc3)ncnc2cc1OCCCN1CCOCC1`, for which the half-inhibitory concentration (IC50) is ≤ 1000 nM.

`COc1cc2c(NS(=O)(=O)c3ccccc3)ncnc2cc1OCCN1CCOCC1`: the half-inhibitory concentration (IC50) was ≤ 1000 nM.

On to `COc1cc2c(NS(=O)(=O)c3ccc(C(C)(C)C)cc3)ncnc2cc1OCCN1CCOCC1`, for which the half-maximal inhibitory concentration (IC50) was ≤ 1000 nM.

With `COc1cc2c(NS(=O)(=O)c3cccc4cccnc34)ncnc2cc1OCCN1CCCCC1`, the IC50 was ≤ 1000 nM.

As for `COc1cc2c(NS(=O)(=O)c3ccc4ccccc4c3)ncnc2cc1OCCN1CCOCC1`, the IC50 was ≤ 1000 nM.

For `COc1cc2c(NS(=O)(=O)c3ccc4ccccc4c3)ncnc2cc1OCCCN(C)C`, the concentration for half-maximal inhibition (IC50) was ≤ 1000 nM.

As to `COc1cc2c(NS(=O)(=O)c3ccc(Cl)s3)ncnc2cc1OCCN1CCOCC1`, the half-maximal inhibitory concentration (IC50) is ≤ 1000 nM.

For the compound `COc1cc2c(NS(=O)(=O)c3ccc(Cl)cc3Cl)ncnc2cc1OCCCN1CCOCC1`, the IC50 is ≤ 1000 nM.

As to `COc1cc2c(NS(=O)(=O)c3ccc(Sc4cccs4)s3)ncnc2cc1OCCN1CCOCC1`, the half-inhibitory concentration (IC50) was ≤ 1000 nM.

Turning to `COc1cc2c(NS(=O)(=O)c3ccccc3C#N)ncnc2cc1OCCCN1CCOCC1`, the IC50 was ≤ 1000 nM.

As to `COc1cc2c(NS(=O)(=O)c3ccc(Cl)s3)ncnc2cc1OC1CCN(C)CC1`, the half-maximal inhibitory concentration (IC50) is ≤ 1000 nM.

In the case of `COc1cc2c(NS(=O)(=O)c3cc(Cl)c(Cl)s3)ncnc2cc1OCCN1CCN(C)CC1`, the half-inhibitory concentration (IC50) was ≤ 1000 nM.

`COc1cc2c(NS(=O)(=O)c3ccccc3)ncnc2cc1OCCCN1CCOCC1`: the concentration for half-maximal inhibition (IC50) is ≤ 1000 nM.

With `COc1cc2c(NS(=O)(=O)c3cc(Cl)cc(Cl)c3)ncnc2cc1OCCCN1CCOCC1`, the IC50 was ≤ 1000 nM.

As for `COc1cc2c(NS(=O)(=O)c3ccc(Sc4ccccc4)s3)ncnc2cc1OCCCN(C)C`, the IC50 was ≤ 1000 nM.

For the compound `COc1ccc(OC)c(S(=O)(=O)Nc2ncnc3cc(OCCCN(C)C)c(OC)cc23)c1`, the concentration for half-maximal inhibition (IC50) was ≤ 1000 nM.

For `COc1cc2c(NS(=O)(=O)c3ccccc3Cl)ncnc2cc1OCCCN(C)C`, the IC50 was ≤ 1000 nM.

On to `COc1cc2c(NS(=O)(=O)c3ccc(Sc4cccs4)s3)ncnc2cc1OC1CCN(C)CC1`, for which the IC50 was ≤ 1000 nM.

Regarding `COc1cc2c(NS(=O)(=O)Cc3ccccc3)ncnc2cc1OCCN1CCN(C)CC1`, the IC50 is ≤ 1000 nM.

`COc1cc2c(NS(=O)(=O)c3ccc(Br)cc3)ncnc2cc1OCCN1CCOCC1`: the half-inhibitory concentration (IC50) is ≤ 1000 nM.

Consider `COc1cc2c(NS(=O)(=O)c3ccc(Cl)cc3)ncnc2cc1OCCN1CCOCC1`, for which the IC50 is ≤ 1000 nM.

Source of the values: the Kinase Knowledgebase extract (Sharma et al. 2016).
